What was measured:
[1] = system: histone H1 (glycation by ADP-ribose); test: AGE-fluorescence screening of glycation inhibitors, histone H1 + ADP-ribose, 96 well microtiter plates; format: biochemical, calf; conditions: for AGE-fluorescence (day 5): 5 days incubation; for % inhibition: AGE-fluorescence day 5; for AGE-fluorescence (day 0): value (spread); for inhibition of AGE-fluorescence, in words: 1 to 10 mM, 5 days; for suppression of AGE-fluorescence, primary screen outcome: test compound 5 mM or limit of solubility, pH 7.4, 37° C.
Method: A 96-well, microtiter plate was used to carry out 48 reactions in duplicate. […] A second pair of wells contains the reactants and the known glycation inhibitor aminoguanidine, and functions as a positive control. Histone H1 is commercially available, and can be prepared following the procedures set out in Johns, et al., Biochem J. 92:55-59(1964), which is incorporated by reference herein.
The reaction system is 50 mM potassium phosphate buffer, at pH 7.4 to which 1.5 mg/ml histone H1 and 1.0 mM ADP-ribose were added. Reaction volume was 300 ul. AGE-fluorescence was measured over time, with incubation at 37° C., at 355 nm (ex) and 405 nm (em). Upon comparison to the control, a test compound was deemed potentially positive if AGE-fluorescence was suppressed.
The histone H1 (1.5 mg/ml) was combined with 1 mM ADP-ribose, in […] KH2PO4 buffer (pH 7.4, 37° C., 0.015% NaN3 added, to inhibit microbial growth). This reaction mixture was added, to 96 well microtiter plates. Test compounds were added to the reaction mixture, at concentrations ranging from 1 to 10 mM, in reaction volumes of 300 ul. Texts were run in duplicate.
Accumulated protein damage was determined by measuring AGE-fluorescence, at wavelengths (λex=370 nm; λ em=440 nm. The fluorescence is suppressed in the presence of compounds with inhibitory activity. Assays were read on a conventional microtiter plate, with a filter setting that approached the above conditions (λ ex: 355 nm, λ […]: 405 nm), which is in the range of the broad excitation/emission maxima of AGE compounds.
The fluorescence was measured at the beginning, and after 5 days of incubation.
The known glycation inhibitor aminoguanidine was used as a control.

[2] = system: histone H1 (carbonylation); test: histone H1 carbonylation by reducing sugars, and interference by compounds; format: biochemical; conditions: for carbonylation of histone H1, in words / amount of carbonylation: 1 mM sugar, pH 7.4, 7 days
Method: Both protein cross-linking and protein carbonylation are well established indicia of protein glycation. See Schacter, et al., Free Radic Biol Med. 17:429-437 (1994), incorporated by reference. In brief, following the assays described infra, formation of protein cross-linking was measured on 12% SDS-PAGE, followed by Coomassie and silver staining. Cross-linking was detectable with a high degree of sensitivity, when the reaction between ADP-ribose and histone H1 was carried out at pH 9.0. […] In FIG. 8, the abbreviations “M,” “D”, and “O” represent “monomer,” “dimer” and “oligomer,” respectively. Silver staining is the preferred way of determining the cross linking. Protein carbonlyation was determined via Western blotting. Specifically, AGE-BSA, which had been prepared by incubating BSA with 1.66M glucose, at pH 7.4 for 90 days at 37° C., was recognized after being derivatized with 2.4 dinitrophenlyhydrazine (“DNP”), when tested with antibodies specific for protein bound, DNP epitopes.
A series of experiments were carried out to compare different reducing sugars as glycation agents. In addition to ADP-ribose, ADP-glucose, D-ribose and D-glucose were tested. Briefly, histone H1 was combined with 1 mM of each sugar, and the mixture was incubated at pH 7.4. After 7 days of incubation, reaction aliquots were analyzed on 12% SDS-PACE gels, with silver staining. Results are presented in FIGS. 19A and B. In each of these, lane 1 is a control, with no sugar added, while lanes 2-5 show results using D-glucose, D-ribose, ADP-glucose, and ADP-ribose, respectively. […] The amount of carbonylation caused by ADP-ribose (0.82 mole/mole histone H1), and D-ribose (0.06 mole/mole histone H1) correlated with immunostaining.
In order to determine if the carbonylation of histone H1 by ADP-ribose involved an oxidative pathway, several compounds, known to interfere with glycoxidation of proteins by D-glucose were tested to determine if they interfered with this action by ADP-ribose. The compounds tested included 5 mM DTPA under argon, 5 mM aminoguanidine, 5 mM N^α acetyl L-cysteine, 5 mM mannitol, and 100 units/ml catalase.

N[C@@H](CCC(=O)N[C@@H](CS)C(=O)NCC(=O)O)C(=O)O [GSH, glutathione]
AGE-fluorescence (day 5) ([1]; compound 1 mM): 19 (0.3)
% inhibition ([1]; compound 1 mM): 10%
AGE-fluorescence (day 0) ([1]; compound 1 mM): 1.3 (0.0)
AGE-fluorescence (day 5) ([1]; compound 5 mM): 17 (0.3)
% inhibition ([1]; compound 5 mM): 20%
AGE-fluorescence (day 0) ([1]; compound 5 mM): 1.1 (0.3)
AGE-fluorescence (day 5) ([1]; compound 10 mM): 14 (0.5)
% inhibition ([1]; compound 10 mM): 35%
AGE-fluorescence (day 0) ([1]; compound 10 mM): 1.1 (0.0)

catalase
interference with carbonylation of histone H1 by ADP-ribose ([2]; 100 units/ml): none of these interfered with the carbonylation

O=C[C@H](O)[C@@H](O)[C@H](O)[C@H](O)CO [D-glucose]
carbonylation of histone H1, in words [2]: Neither D-glucose nor ADP-glucose caused significant carbonylation

O=C1CC(=O)NC(=S)N1 [2-Thiobarbituric acid]
AGE-fluorescence (day 5) ([1]; compound 1 mM): 12 (0.4)
% inhibition ([1]; compound 1 mM): 45%
AGE-fluorescence (day 0) ([1]; compound 1 mM): 1.1 (0.1)
AGE-fluorescence (day 5) ([1]; compound 5 mM): 5.5 (0.4)
% inhibition ([1]; compound 5 mM): 78%
AGE-fluorescence (day 0) ([1]; compound 5 mM): 1.2 (0.1)
AGE-fluorescence (day 5) ([1]; compound 10 mM): 2.3 (0.0)
% inhibition ([1]; compound 10 mM): 95%
AGE-fluorescence (day 0) ([1]; compound 10 mM): 1.3 (0.1)

Nc1ncnc2c1ncn2[C@@H]1O[C@H](COP(=O)(O)OP(=O)(O)O[C@H]2O[C@H](CO)[C@@H](O)[C@H](O)[C@H]2O)[C@@H](O)[C@H]1O [ADP-glucose]
carbonylation of histone H1, in words [2]: Neither D-glucose nor ADP-glucose caused significant carbonylation

NC(CCS)C(=O)O (racemic) [D,L-Homocysteine]
inhibition of AGE-fluorescence, in words [1]: increased AGE-fluorescence
AGE-fluorescence (day 5) ([1]; compound 1 mM): 16 (1.1)
% inhibition ([1]; compound 1 mM): 26%
AGE-fluorescence (day 0) ([1]; compound 1 mM): 1.3 (0.0)
AGE-fluorescence (day 5) ([1]; compound 5 mM): 22 (0.1)
% inhibition ([1]; compound 5 mM): 0%
AGE-fluorescence (day 0) ([1]; compound 5 mM): 1.2 (0.2)
AGE-fluorescence (day 5) ([1]; compound 10 mM): 27 (1.7)
% inhibition ([1]; compound 10 mM): 0%
AGE-fluorescence (day 0) ([1]; compound 10 mM): 1.1 (0.1)

N[C@@H](CS)C(=O)O [L-Cys, L-cysteine]
AGE-fluorescence (day 5) ([1]; compound 1 mM): 14 (0.3)
% inhibition ([1]; compound 1 mM): 36%
AGE-fluorescence (day 0) ([1]; compound 1 mM): 1.2 (0.1)
AGE-fluorescence (day 5) ([1]; compound 5 mM): 11 (0.2)
% inhibition ([1]; compound 5 mM): 50%
AGE-fluorescence (day 0) ([1]; compound 5 mM): 1.1 (0.1)
AGE-fluorescence (day 5) ([1]; compound 10 mM): 9.0 (0.2)
% inhibition ([1]; compound 10 mM): 61%
AGE-fluorescence (day 0) ([1]; compound 10 mM): 1.2 (0.1)
suppression of AGE-fluorescence, primary screen outcome [1]: potential inhibitor

NCCC(=O)O [beta-alanine]
suppression of AGE-fluorescence, primary screen outcome [1]: true negatives

CC(=O)N[C@@H](CS)C(=O)O [NAC, N α-acetyl-L-cysteine, reference compound]
AGE-fluorescence (day 5) ([1]; compound 1 mM): 11 (0.6)
% inhibition ([1]; compound 1 mM): 51%
AGE-fluorescence (day 0) ([1]; compound 1 mM): 1.2 (0.2)
AGE-fluorescence (day 5) ([1]; compound 5 mM): 10 (0.4)
% inhibition ([1]; compound 5 mM): 55%
AGE-fluorescence (day 0) ([1]; compound 5 mM): 1.0 (0.1)
AGE-fluorescence (day 5) ([1]; compound 10 mM): 9.4 (0.6)
% inhibition ([1]; compound 10 mM): 58%
% inhibition ([1]; compound 10 mM, listed as N α-acetyl-L-cysteine): 61%
AGE-fluorescence (day 0) ([1]; compound 10 mM): 1.1 (0.1)
interference with carbonylation of histone H1 by ADP-ribose ([2]; compound 5 mM): none of these interfered with the carbonylation

N[C@@H](CS)C(=O)NCC(=O)O [L-Cys-Gly, NH2-L-cys-gly-COOH]
inhibition of AGE-fluorescence, in words [1]: increased AGE-fluorescence
AGE-fluorescence (day 5) ([1]; compound 1 mM): 17
% inhibition ([1]; compound 1 mM): 20%
AGE-fluorescence (day 0) ([1]; compound 1 mM): 1.3 (0.3)
AGE-fluorescence (day 5) ([1]; compound 5 mM): 26 (0.4)
% inhibition ([1]; compound 5 mM): 0%
AGE-fluorescence (day 0) ([1]; compound 5 mM): 1.2 (0.2)
AGE-fluorescence (day 5) ([1]; compound 10 mM): 40 (0.0)
% inhibition ([1]; compound 10 mM): 0%
AGE-fluorescence (day 0) ([1]; compound 10 mM): 1.2 (0.1)

OC[C@@H](O)[C@@H](O)[C@H](O)[C@H](O)CO [mannitol]
interference with carbonylation of histone H1 by ADP-ribose ([2]; compound 5 mM): none of these interfered with the carbonylation

COC(=O)[C@@H](N)CS [L-Cys-OMe, L-cysteine methylester]
AGE-fluorescence (day 5) ([1]; compound 1 mM): 15 (0.1)
% inhibition ([1]; compound 1 mM): 31%
AGE-fluorescence (day 0) ([1]; compound 1 mM): 1.2 (0.1)
AGE-fluorescence (day 5) ([1]; compound 5 mM): 12 (0.8)
% inhibition ([1]; compound 5 mM): 46%
AGE-fluorescence (day 0) ([1]; compound 5 mM): 1.3 (0.1)
AGE-fluorescence (day 5) ([1]; compound 10 mM): 9.0 (0.2)
% inhibition ([1]; compound 10 mM): 61%
AGE-fluorescence (day 0) ([1]; compound 10 mM): 1.2 (0.1)
suppression of AGE-fluorescence, primary screen outcome [1]: potential inhibitor

C[N+](C)(C)[C@@H](Cc1c[nH]c(=S)[nH]1)C(=O)[O-] [L-Ergothioneine]
inhibition of AGE-fluorescence, in words [1]: somewhat better inhibition
AGE-fluorescence (day 5) ([1]; compound 1 mM): 13 (0.0)
% inhibition ([1]; compound 1 mM): 40%
AGE-fluorescence (day 0) ([1]; compound 1 mM): 1.0 (0.1)
AGE-fluorescence (day 5) ([1]; compound 5 mM): 9.3 (0.2)
% inhibition ([1]; compound 5 mM): 59%
AGE-fluorescence (day 0) ([1]; compound 5 mM): 1.2 (0.0)
AGE-fluorescence (day 5) ([1]; compound 10 mM): 7.4 (0.1)
% inhibition ([1]; compound 10 mM): 69%
AGE-fluorescence (day 0) ([1]; compound 10 mM): 1.2 (0.1)

NCCS [Cysteamine]
inhibition of AGE-fluorescence, in words [1]: somewhat better inhibition
AGE-fluorescence (day 5) ([1]; compound 1 mM): 10 (0.6)
% inhibition ([1]; compound 1 mM): 55%
AGE-fluorescence (day 0) ([1]; compound 1 mM): 1.0 (0.1)
AGE-fluorescence (day 5) ([1]; compound 5 mM): 9.0 (0.7)
% inhibition ([1]; compound 5 mM): 60%
AGE-fluorescence (day 0) ([1]; compound 5 mM): 1.1 (0.1)
AGE-fluorescence (day 5) ([1]; compound 10 mM): 6.0 (0.3)
% inhibition ([1]; compound 10 mM): 76%
AGE-fluorescence (day 0) ([1]; compound 10 mM): 1.2 (0.2)

Nc1ncnc2c1ncn2[C@@H]1O[C@H](COP(=O)(O)OP(=O)(O)OC[C@H]2OC(O)[C@H](O)[C@@H]2O)[C@@H](O)[C@H]1O (stereo partly drawn) [ADP-ribose]
amount of carbonylation [2]: 0.82 mole/mole histone H1
carbonylation of histone H1, in words [2]: extensive carbonylation

O=C(O)CN(CCN(CC(=O)O)CC(=O)O)CCN(CC(=O)O)CC(=O)O [DTPA]
interference with carbonylation of histone H1 by ADP-ribose ([2]; 5 mM under argon): none of these interfered with the carbonylation

O=C[C@H](O)[C@H](O)[C@H](O)CO [D-ribose]
amount of carbonylation [2]: 0.06 mole/mole histone H1
carbonylation of histone H1, in words [2]: a lesser amount

From patent US6716635B2, “Method for identifying regulators of protein-advanced glycation end product (protein-AGE) formation” (University of Kentucky Research Foundation, priority 2000, dated 2004)
